From patent US20210213104A1, “GLUCAGON AND GLP-1 CO-AGONISTS FOR THE TREATMENT OF CHRONIC KIDNEY DISEASE AND DIABETIC KIDNEY DISEASE IN TYPE 2 DIABETES” (MEDIMMUNE LIMITED, priority 2020, published 2021)

System: subjects with T2DM and renal impairment
Test: Phase 2a: continuous glucose monitoring (CGM)
Type: in vivo, human
Conditions: ITT; for Time in target range, LS Mean Change / Percentage of Time CGM Glucose Within Target Range (70-180 mg/dL), Mean / Percentage of Time CGM Glucose Within Target Range (70-180 mg/dL), Median / Time in target range, Change from Baseline (Days −8 to −2), Mean / Time in target range, Change from Baseline (Days −8 to −2), Median / Time in target range, Difference in LS Mean Change (vs Placebo): 100 μg Dose (Days 5 to 11)
Experimental: Cotadutide was titrated from 50 μg up to 300 μg and administered once daily by subcutaneous (SC) injection over 32 days.
Cotadutide was administered at 50 μg once daily for 4 days, followed by 100 μg daily for 7 days, 200 μg daily for 7 days, and 300 μg daily for 14 days (n=20). Placebo was administered one daily for 32 days (n=20). Cotadutide and placebo were administered in the morning. Dosing commenced following predose baseline vital signs, blood tests (including HbA1c), an electrocardiogram (ECG), body weight measurement, and bioimpedance spectroscopy (BIS). Subjects then returned for daily dosing or remained overnight locally until Day 5, and thereafter, had visits at weekly intervals until a maintenance dose of 300 μg was established. Thus, Cotadutide or placebo was administered at the study site by study personal for the first four doses and on site on Days 5, 12, 19, and 32. At all other times, subjects preformed dosing at home.
A Freestyle Libre® Pro CGM device was used to measure interstitial glucose levels. […] Data generated by CGM was used at visits to adjust insulin doses and other treatments.
The CGM sensor, which is a small plastic circular device of 35 mm diameter and 5 mm depth, was applied to the back of the upper arm. Subjects wore the CGM sensor continuously up until the time of a sensor change, which was to occur within 14 days, and they were advised that they could bathe and shower, and swim in up to 3 m depth for up to 30 minutes while wearing the CGM sensor. When the CGM sensor was removed, a new CGM sensor could be reapplied, ideally close to the original site, but with the subject's site preference taken into account. CGM sensors were single-use only.
If a subject was unable to tolerate wearing the CGM sensor for the entire duration of the study, the sensor was removed; but the subject was to remain in the study with or without continued CGM and could instead be instructed to monitor capillary plasma glucose measurements four times per day (before meals and before bedtime) and record these levels in the diary provided.
Subjects underwent continuous glucose monitoring (CGM) starting from Day −14 to Day 40 (±5 days), with sensor changes within 14-day intervals. CGM readings were used to analyze change in average CGM glucose and glucose AUC7 d, coefficient of variation as a marker of glycemic variability, and time spent in target glucose range and hypoglycemia, to enable comparison across different dose levels.

[1] = 50 μg (Days 1 to 4, not 7 days), baseline Days −8 to −2, ANCOVA
[2] = 100 μg (Days 5 to 11), baseline Days −8 to −2, ANCOVA
[3] = 100 μg (Days 5 to 11), baseline Days −8 to −2

CCCCCCCCCCCCCCCC(=O)N[C@@H](CCC(=O)NCCCC[C@H](NC(=O)[C@H](CC(=O)O)NC(=O)[C@H](CO)NC(=O)[C@@H](NC(=O)[C@H](Cc1ccccc1)NC(=O)[C@@H](NC(=O)CNC(=O)[C@H](CCC(N)=O)NC(=O)[C@H](CO)NC(=O)[C@@H](N)Cc1c[nH]cn1)[C@@H](C)O)[C@@H](C)O)C(=O)N[C@@H](CO)C(=O)N[C@@H](CCC(=O)O)C(=O)N[C@@H](Cc1ccc(O)cc1)C(=O)N[C@@H](CC(C)C)C(=O)N[C@@H](CC(=O)O)C(=O)N[C@@H](CO)C(=O)N[C@@H](CCC(=O)O)C(=O)N[C@@H](CCCNC(=N)N)C(=O)N[C@@H](C)C(=O)N[C@@H](CCCNC(=N)N)C(=O)N[C@@H](CC(=O)O)C(=O)N[C@@H](Cc1ccccc1)C(=O)N[C@H](C(=O)N[C@@H](C)C(=O)N[C@@H](Cc1c[nH]c2ccccc12)C(=O)N[C@@H](CC(C)C)C(=O)N[C@@H](CCC(=O)O)C(=O)N[C@@H](C)C(=O)NCC(=O)NCC(=O)O)C(C)C)C(=O)O [Cotadutide]
Percentage of time CGM Glucose in Clinically Significant Hypoglycemia (<54 mg/dL), Difference in LS Mean Change (vs Placebo) [1]: 5.28%
Percentage of time CGM Glucose in Clinically Significant Hypoglycemia (<54 mg/dL), LS Mean Change [1]: 4.79%
Average CGM Glucose Over 7-Day Periods, End of Dosing Period, Mean (100 μg (Days 5 to 11)): 127.599 mg/dL
Average CGM Glucose Over 7-Day Periods, End of Dosing Period, Median (100 μg (Days 5 to 11)): 122.769 mg/dL
Percentage of time CGM Glucose in Hyperglycemia (>180 mg/dL), End of Dosing Period, Mean (100 μg (Days 5 to 11)): 10.46%
Percentage of time CGM Glucose in Hyperglycemia (>180 mg/dL), End of Dosing Period, Median (100 μg (Days 5 to 11)): 3.72%
Average CGM Glucose Over 7-Day Periods, Difference in LS Mean Change (vs Placebo) [2]: -46.73 mg/dL
Average CGM Glucose Over 7-Day Periods, LS Mean Change [2]: -36.35 mg/dL
Percentage of time CGM Glucose in Clinically Significant Hypoglycemia (<54 mg/dL), Difference in LS Mean Change (vs Placebo) [2]: 2.25%
Percentage of time CGM Glucose in Clinically Significant Hypoglycemia (<54 mg/dL), LS Mean Change [2]: 1.41%
Percentage of time CGM Glucose in Hyperglycemia (>180 mg/dL), Difference in LS Mean Change (vs Placebo) [2]: −29.72%
Percentage of time CGM Glucose in Hyperglycemia (>180 mg/dL), LS Mean Change [2]: −24.62%
Percentage of time CGM Glucose in Hypoglycemia (<70 mg/dl), Difference in LS Mean Change (vs Placebo) [2]: 2.80%
Percentage of time CGM Glucose in Hypoglycemia (<70 mg/dl), LS Mean Change [2]: 2.26%
Average CGM Glucose Over 7-Day Periods, Change from Baseline to End of Dosing Period, Mean [3]: -35.628 mg/dL
Average CGM Glucose Over 7-Day Periods, Change from Baseline to End of Dosing Period, Median [3]: -31.685 mg/dL
Percentage of time CGM Glucose in Hyperglycemia (>180 mg/dL), Change from Baseline to End of Dosing Period, Mean [3]: −24.45%
Percentage of time CGM Glucose in Hyperglycemia (>180 mg/dL), Change from Baseline to End of Dosing Period, Median [3]: −19.57%
Time in target range, LS Mean Change (ANCOVA, Insulin Dose < 20 U/day): 26.25%
Time in target range, LS Mean Change (ANCOVA, Insulin Dose ≥ 20 U/day): 3.59%
Time in target range, LS Mean Change (ANCOVA, Total): 12.25%
Percentage of Time CGM Glucose Within Target Range (70-180 mg/dL), Mean (Insulin Dose < 20 U/day): 94.44%
Percentage of Time CGM Glucose Within Target Range (70-180 mg/dL), Median (Insulin Dose < 20 U/day): 97.79%
Time in target range, Change from Baseline (Days −8 to −2), Mean (Insulin Dose < 20 U/day): 31.19%
Time in target range, Change from Baseline (Days −8 to −2), Median (Insulin Dose < 20 U/day): 33.99%
Time in target range, Difference in LS Mean Change (vs Placebo) (Insulin Dose < 20 U/day): 44.84%
Percentage of Time CGM Glucose Within Target Range (70-180 mg/dL), Mean (Insulin Dose ≥ 20 U/day): 66.51%
Percentage of Time CGM Glucose Within Target Range (70-180 mg/dL), Median (Insulin Dose ≥ 20 U/day): 77.04%
Time in target range, Change from Baseline (Days −8 to −2), Mean (Insulin Dose ≥ 20 U/day): 2.53%
Time in target range, Change from Baseline (Days −8 to −2), Median (Insulin Dose ≥ 20 U/day): 12.04%
Time in target range, Difference in LS Mean Change (vs Placebo) (Insulin Dose ≥ 20 U/day): 8.32%
Percentage of Time CGM Glucose Within Target Range (70-180 mg/dL), Mean (Total): 75.82%
Percentage of Time CGM Glucose Within Target Range (70-180 mg/dL), Median (Total): 84.38%
Time in target range, Change from Baseline (Days −8 to −2), Mean (Total): 11.58%
Time in target range, Change from Baseline (Days −8 to −2), Median (Total): 14.94%
